From PMC11821258 (Molecules, 2025)

How the values were obtained:
Type in all cases: cell-based
[1] = tested on: human biphenotypic B myelomonocytic leukemia MV4-11; assay: Antiproliferative activity, MTT assay, 72 h; conditions: for IC50: Homo sapiens, MV4-11, 72 h, MTT, read-out: IC50; for SI: IC50 MCF-10A / IC50 MV4-11
Method: (§1) The tested compounds were dissolved in DMSO (dimethyl sulfoxide) to a concentration of 10 mg/mL and then were diluted in the culture medium to reach the final concentrations. The cells were plated in 384-well plates at a density of 1 × 10^3 or 2 × 10^3 (MCF-10A) cells per well (Greiner Bio One, Kremsmünster, Austria) and in 96-well plates (MV4-11 cell; Sarstedt, Nümbrecht, Germany) at a density of 5 × 10^3 cells per well. After 24 h of incubation, the tested compounds were added at concentrations in the range of 100–0.03 µg/mL and, after the next 72 h of exposure to tested agents, the cytotoxic effect of all agents was examined using the MTT (MV4-11) or SRB assay, described previously. The values of IC50 (inhibitory concentration 50%) were calculated separately for each experiment (repeated 3–5 times) using the Prolab-3 system which is based on Cheburator 0.4 software. Doxorubicin was applied as a reference drug. The IC50 values in µg/mL were calculated to µM.
This assay was used against MV4-11 leukemia cells and was performed after 72 h of exposure of the tested agents to the cells. For each well, 20 µL of the MTT [3-(4,5-dimethylthiazol-2-yl)-2,5-diphenyl tetrazolium bromide] solution (5 mg/mL, Merck, Darmstadt, Germany) was added. After the incubation time (4 h at 37 °C), 80 µL of the lysing buffer was added to each well (mixture of 225 mL of DMF (dimethylformamide) Avantor, Poland; 67.5 g of SDS, Merck, Darmstadt, Germany; and 275 mL of distilled water). After the next 24 h, the absorbance of the samples was measured at a 570 nm wavelength on a Synergy H4 photometer (BioTek Instruments, Winooski, VT, USA). The absorbance of wells without the cells was the background.

[2] = tested on: human normal epithelial cells from the mammary gland (MCF-10A); assay: Cytotoxicity on non-tumorigenic cells, SRB assay, 72 h; conditions: Homo sapiens, MCF-10A normal cells, SRB, read-out: IC50
Method: as §1
(§2) The cytotoxicity assay was performed after the cultured cells were exposed to the tested agents for 72 h using the authomatic Washer dyspenser EL406, BioTek. At the first step, the washer dispenser collected 40 µL of cultured medium from each wells, and then the cells were fixed by gently layering 20 µL per well of cold 25% trichloroacetic acid to each well. The incubation time was 40 min and then the plates were washed with tap water. The cells were stained with 20 µL per well of 0.1% sulforhodamine B (SRB, Merck, Darmstadt, Germany) for 30 min. Unbound sulforhodamine B was removed by washing it with 1% acetic acid. The protein-bound dye was extracted in 30 min using 70 µL per well of 10 mM unbuffered Tris base (Merck, Darmstadt, Germany). The absorbance (at 540 nm) was measured on a Synergy H4 photometer (BioTek Instruments, Winooski, VT, USA). The absorbance of the wells without the cells was the background.

[3] = tested on: human pancreas cancer MiaPaca-2 cells; assay: Antiproliferative activity, SRB assay, 72 h; conditions: for IC50: Homo sapiens, MIA PaCa-2, MiaPaca-1 (so in the source), 72 h, SRB, read-out: IC50; for SI: IC50 MCF-10A / IC50 MiaPaca-1 (so in the source)
Method: as §1, §2

[4] = tested on: human breast cancer MCF-7; assay: Antiproliferative activity, SRB assay, 72 h; conditions: for IC50: Homo sapiens, MCF7, MCF-7, 72 h, SRB, read-out: IC50; for SI: IC50 MCF-10A / IC50 MCF-7
Method: as §1, §2

[5] = tested on: human melanoma Hs294T cells; assay: Antiproliferative activity, SRB assay, 72 h; conditions: for IC50: Homo sapiens, Hs 294T, Hs249T (so in the source), 72 h, SRB, read-out: IC50; for SI: IC50 MCF-10A / IC50 Hs249T (so in the source)
Method: as §1, §2

[6] = tested on: human prostate adenocarcinoma PC-3; assay: Antiproliferative activity, SRB assay, 72 h; conditions: for IC50: Homo sapiens, PC-3, 72 h, SRB, read-out: IC50; for SI: IC50 MCF-10A / IC50 PC-3
Method: as §1, §2

[7] = tested on: human colon cancer HCT116 cells; assay: Antiproliferative activity, SRB assay, 72 h; conditions: for IC50: Homo sapiens, HCT-116, HCT116, 72 h, SRB, read-out: IC50; for SI: IC50 MCF-10A / IC50 HCT116
Method: as §1, §2

[8] = tested on: human lung carcinoma A549; assay: Antiproliferative activity, SRB assay, 72 h; conditions: for IC50: Homo sapiens, A549, 72 h, SRB, read-out: IC50; for SI: IC50 MCF-10A / IC50 A549
Method: as §1, §2

SMILES	IC50 [1] [µM]	SI [1]	IC50 [2] [µM]	IC50 [3] [µM]	SI [3]	IC50 [4] [µM]	SI [4]	IC50 [5] [µM]	SI [5]	IC50 [6] [µM]	SI [6]	IC50 [7] [µM]	SI [7]	IC50 [8] [µM]	SI [8]
C#CCCC(=O)OC[C@]12CC[C@@H](C(=C)C)C1C1CCC3[C@@]4(C)CC[C@H](OC(=O)CCC(=O)O)C(C)(C)C4CC[C@@]3(C)[C@]1(C)CC2 (some centres unmarked) [Compound 6b]	3.53 ± 0.64	8.68	30.7 ± 3.69	27.4 ± 2.57	1.12	11.4 ± 4.17	2.69	17.5 ± 6.26	1.75	13.2 ± 2.57	2.33	9.95 ± 0.64	3.08	3.21 ± 0.64	9.55
C=C(C)[C@@H]1CC[C@]2(COC(=O)C#CC)CC[C@]3(C)C(CCC4[C@@]5(C)CC[C@H](OC(=O)CC(C)(C)CC(=O)O)C(C)(C)C5CC[C@]43C)C12 (some centres unmarked) [Compound 4c]	3.23 ± 1.38	10.10	32.6 ± 2.15	22.7 ± 5.53	1.43	16.6 ± 2.15	1.96	9.68 ± 1.54	3.37	10.1 ± 2.46	3.21	8.45 ± 2.15	3.85	7.37 ± 2.3	4.42
C=C(C)[C@@H]1CC[C@]2(CO)CC[C@]3(C)C(CCC4[C@@]5(C)CC[C@H](OC(=O)CC(C)(C)C(=O)O)C(C)(C)C5CC[C@]43C)C12 (some centres unmarked) [Compound 5]	7.81 ± 2.8	3.43	26.8 ± 2.1	30.7 ± 2.63	0.87	29.2 ± 3.85	0.92	30.8 ± 1.4	0.87	27 ± 3.85	1.01	14.7 ± 4.55	1.82	9.11 ± 0.87	2.94
C=C(C)[C@@H]1CC[C@]2(COC(=O)CC)CC[C@]3(C)C(CCC4[C@@]5(C)CC[C@H](OC(=O)CC(C)(C)C(=O)O)C(C)(C)C5CC[C@]43C)C12 (some centres unmarked) [Compound 5d]	2.5 ± 0.48	13.63	34.1 ± 4.94	29.2 ± 1.59	1.17	21.1 ± 9.89	1.62	59.7 ± 38.6	0.57	16.6 ± 6.54	2.06	12.3 ± 4.15	2.78	4.62 ± 1.59	7.38
C=C(C)[C@@H]1CC[C@]2(COC(=O)CC)CC[C@]3(C)C(CCC4[C@@]5(C)CC[C@H](OC(=O)CC(C)(C)CC(=O)O)C(C)(C)C5CC[C@]43C)C12 (some centres unmarked) [Compound 4d]	5.15 ± 0.47	11.73	60.4 ± 15.9	34.2 ± 2.96	1.77	20.6 ± 5.77	2.93	18.7 ± 9.67	3.23	21.7 ± 4.52	2.78	16.9 ± 5.61	3.58	6.24 ± 1.25	9.68
C#CC(=O)OC[C@]12CC[C@@H](C(=C)C)C1C1CCC3[C@@]4(C)CC[C@H](OC(=O)CC(C)(C)C(=O)O)C(C)(C)C4CC[C@@]3(C)[C@]1(C)CC2 (some centres unmarked) [Compound 5a]	0.6 ± 0.175	21.17	12.7 ± 0.5	–	–	19.4 ± 3.1	0.65	–	–	0.85 ± 0.17	14.94	3.64 ± 0.6	3.49	10.7 ± 3	1.18
